Laboratory results published in patent publication US20250281609A1, “COMPOSITION FOR TREATING OR PREVENTING CANCER” (ORGANOIDSCIENCES LTD., priority 2021, published 2025).

Experiments:
[1] = system: colorectal cancer organoids; test: Colorectal cancer organoid viability (growth rate and death rate); format: cell-based, human; conditions: for increase in efficacy (cancer organoid death) of the combination of the HVEM inhibitor with the HSP inhibitor compared to HVEM inhibitor alone: 72 hours after treatment, FIG. 6
Method: To evaluate whether the combination of HVEM inhibitor and HSP inhibitor exerts a synergistic effect as a cancer preventive or therapeutic agent, we conducted the following experiment. Specifically, colorectal cancer organoids were treated with either an HVEM inhibitor alone, an HSP inhibitor alone, or a combination of both. The anticancer efficacy of the combination treatment was assessed by measuring cancer organoid viability.
For HVEM inhibitor, anti-HVEM antibodies (CW10, Santa Cruz, #sc-21718; R&D Systems, #MAB356-SP) were used at 10 nM. For inhibitor of HVEM ligands, anti-BTLA antibodies (Mybiosource, #MBS633646; Adipogen, #AG-20B-0049) were used at 10 nM. For HSP inhibitors, Luminespib (AUY922, Selleck, #s1069; HSP90-targeting), Ganetespib (STA-9090, Selleck, #s1159; HSP90-targeting), Tanespimycin (17-AAG, Selleck, #s1141; HSP90-targeting), BIIB021 (Selleck, #s1175; HSP90-targeting), Onalespib (AT13387, Selleck, #s1163; HSP90-targeting), HSP990 (#s7097; Selleck, HSP90-targeting), KNK437 (#s7750; Selleck, HSP40-targeting), and VER-155008 (Selleck, #s7751; HSP70-targeting) were used.
The viability of cancer organoids was assessed through growth rate and death rate of cancer organoids as follows.

[2] = system: colorectal cancer organoids xenograft tumors; test: Mouse tumor xenograft model using colorectal cancer organoids, humanized with PBMCs; format: in vivo; conditions: harvested tumor tissues, FIG. 10
Method: Specifically, monotherapy with an HVEM inhibitor, monotherapy with a BTLA inhibitor, monotherapy with an HSP inhibitor, combination therapy with an HVEM inhibitor and an HSP inhibitor, combination therapy with a BTLA inhibitor and an HSP inhibitor, or combination therapy with an HVEM inhibitor, a BTLA inhibitor, and an HSP inhibitor was administered to a mouse tumor xenograft model using colorectal cancer organoids. In addition, since the effect of inhibitors of HVEM and its ligand requires the presence of immune cells, PBMCs were introduced into the mice bearing the xenograft tumors to generate humanized mice. The inhibitors were administered a total of four times on days 15, 18, 21, and 24 after tumor transplantation.
As an HVEM (Herpesvirus entry mediator) inhibitor, an anti-HVEM antibody (CW10, Santa Cruz, #sc-21718) was used at a dose of 1 mg/kg; as an inhibitor of the HVEM ligand, an anti-BTLA antibody (Mybiosource, #MBS633646) was used at a dose of 1 mg/kg; and as an HSP (heat shock protein) inhibitor, Luminespib (AUY922, Selleck, #s1069; targeting HSP90) was used at a dose of 0.5 mg/kg.
From day 7 after tumor implantation, tumor size was measured three times per week. After completion of the experiment, the shape of the harvested tumors was analyzed, and tumor weight was measured. […]

[3] = colorectal cancer organoids, increasing concentrations

SMILES | increase in cancer organoid death rate, high concentration vs low concentration ([1]; 100 nM or higher compared to 1 to 5 nM) [fold] | increase in efficacy (cancer organoid death) of the combination of the HVEM inhibitor with the HSP inhibitor compared to HVEM inhibitor alone ([1]; colorectal cancer organoids) | cancer organoid death rate [1, 3] | growth rate of cancer organoids over time [1, 3] | hCD8+ T cells infiltrated into the tumor tissue (IHC) [2]
CCNC(=O)c1noc(-c2cc(C(C)C)c(O)cc2O)c1-c1ccc(CN2CCOCC2)cc1 [AUY922, Luminespib] | > 3.6 | ≥ 3.4 fold | increased cancer organoids death rate | reduced growth over time | barely detected
C=CCNC1=C2C[C@@H](C)C[C@H](OC)[C@H](O)[C@@H](C)/C=C(\C)[C@H](OC(N)=O)[C@@H](OC)/C=C\C=C(/C)C(=O)NC(=CC1=O)C2=O [17-AAG, Tanespimycin] | – | approximately 2.9 fold | – | – | –
CC(C)c1cc(-c2n[nH]c(=O)n2-c2ccc3c(ccn3C)c2)c(O)cc1O [STA-9090, Ganetespib] | – | approximately 2.9 fold | – | – | –
